The numbers were not newly measured in patent US20170348276A1 (Acerus Pharmaceutical Corporation, priority 2016, published 2017), which cites them from elsewhere.

The conditions of data set [1]: percent of the activity of Δ9-THC.

For the molecule `C=C(C)[C@@H]1CCC(C)=C[C@H]1c1c(O)cc(CCCCC)cc1O` [CBD, Cannabidiol], for the setting “oil-based capsule, oral”, the “Bioavailability from oil-based oral delivery” value was around 6%. Also, the oral bioavailability (oral administration, extensive first pass hepatic metabolism) is on record as below 5%. The “bioavailability, oral-mucosal/sublingual delivery” value (sprays/lozenges) is given as “up to 12%”.

Regarding `CCCCCc1cc(O)c2c(c1)OC(C)(C)c1ccc(C)cc1-2` [Cannabinol (CBN), Cannabinol], the “activity relative to Δ9-THC” value in data set [1] was 10%.
